Laboratory results as given in US20240408053A1, “ENTERITIS-SUPPRESSING COMPOSITION” (KOBE GAKUIN EDUCATIONAL FOUNDATION, priority 2021, published 2024).
Marks after values point to notes of the source that are not given here.

Tests used:
mouse gut microbiota = test: Structural analysis of mouse gut microbiota (16S rRNA sequencing); assay type: in vivo, mice; conditions: 4 weeks
Experimental: Additionally, the gut microbiota structures of the mice in each group (groups C, E, S, and ES) were analyzed.
The mouse gut microbiota 16S rRNA sequencing was outsourced to MyMetagenome Co., Ltd.
Immediately after collection, mouse feces was treated with liquid nitrogen and stored at −80° C. While the fecal samples were frozen, treatment was performed, and the extracted nucleic acids were used as samples for sequence analysis. The measurement was performed using a next-generation sequencer (NGS) (MiniSeq, Illumina, K.K.), and the results of 16S rRNA genes (the V1-V2 region) and sequences of 5,000 reads or more from the extracted nucleic acids were used for analysis. For the analysis of bacterial flora structure, raw sequence data processing and well-known sequence data analysis were performed, and the analysis was clustered at a 96% pairwise identity cutoff for 16S reads. Similarity values were assigned to the phylum and genus categories.

HO-1 = test: Western blotting of HO-1 in colon tissue; assay type: in vivo, mice; conditions: group ES: 2.0% v/v ethanol diet + 2.5 mg sesaminol per day oral, 2 weeks; group E significantly lower than group C
Source text: Chronic consumption of an excessive amount of ethanol has been reported to increase CYP2E1 and iNOS levels and cause ethanol-induced oxidative stress in the liver and other tissues. The nuclear factor erythroid 2-related factor 2/heme oxygenase-1 (Nrf2/HO-1) system has also been reported to be widely involved in the protection of cells from oxidative damage. Therefore, the expression levels of these proteins (CYP2E1, iNOS, and HO-1) in mouse colon tissue in the four groups (groups C, S, E, and ES) were examined by western blotting (WB).
A colon tissue sample (100 mg) was homogenized in 1 mL of an M-PER mammalian protein extraction reagent (Pierce) containing a diluent of a protease inhibitor cocktail (Nacalai Tesque, Inc.), and the resulting homogenate was centrifuged at 20,000× g at 4° C. for 15 minutes. The protein concentration of the supernatant was measured with a protein assay reagent (Bio-Rad Laboratories, Inc.), and equal amounts of proteins were subjected to SDS-PAGE. Electrophoresed proteins in the gel were transferred to a PVDF membrane, and the membrane was immersed in a blocking reagent (room temperature, overnight). The primary antibody (rabbit polyclonal antibody) was then reacted. […] The band intensities were quantified with ImageJ.

[1] = Amount of short-chain fatty acids in mouse feces (GC-FID); assay type: in vivo, mice; conditions: 4 weeks
Experimental: Short-chain fatty acids are metabolites of intestinal bacteria. The amounts of short-chain fatty acids (acetic acid, propionic acid, and butyric acid) in feces of the mice in each group (groups C, E, S, and ES) were measured.
The amounts of short-chain fatty acids in the mouse feces were measured by outsourcing to TechnoSuruga Laboratory Co., Ltd.
Immediately after collection, mouse feces was treated with liquid nitrogen and stored at −80° C. While the fecal samples were frozen, an amount of 100 mg was crushed with beads and formed into a powder, and components extracted with ethyl acetate treatment were used as detection samples. For the measurement, a gas-chromatography-flame ionization detector system (Agilent 7890B GC, produced by Agilent technologies) was used, and the concentration of each short-chain fatty acid was calculated by comparison with the amount of standard substance.

ZO-1 = test: Immunofluorescence staining of ZO-1 in colon tissue, 4 weeks; assay type: in vivo, mice; conditions: group ES: 2.0% v/v ethanol diet + 2.5 mg sesaminol per day oral, group E significant decrease
Experimental: (§1) Next, in order to verify the longer-term effect of oral administration of sesaminol on ethanol-induced intestinal tight junction (TJ) dysfunction and leaky gut, histological analysis of colonic epithelial TJ proteins (ZO-1, Occludin, and Claudin-1) and analysis of the plasma LPS level were performed using the mice in each group (groups C, S, E, and ES) described in Example 7. Histological analysis was performed by immunofluorescence staining with anti-ZO-1, anti-Occludin, and anti-Claudin-1 antibodies, followed by observation under a fluorescence microscope. The Plasma LPS level was measured according to the method described in Example 6.

[2] = Change in body weight and general observation, 4 weeks; assay type: in vivo; conditions: groups S and ES (2.5 mg sesaminol per day, oral) vs groups C and E
Experimental: Ten-week-old C57BL/6NCr male mice were divided into four groups (eight mice per group), i.e., group C, group S, group E, and group ES, and fed daily for 4 weeks in the same manner as in Example 1.
The body weights of the mice in the above four groups (group C, group S, group E, and group ES) were measured every week.

LPS = test: Plasma LPS level, 4 weeks; assay type: in vivo, mice; conditions: group ES: 2.0% v/v ethanol diet + 2.5 mg sesaminol per day oral, vs group E, level similar to groups C and S
Experimental: The plasma LPS concentration was measured with a limulus amebocyte lysate (LAL) assay.
as §1

[3] = AST and ALT activities and TG concentration in the plasma, 4 weeks; assay type: in vivo, mice; conditions: mean ±SD
Experimental: The liver function and plasma lipid level in the mice in each group were examined by measuring the percentage of the liver weight relative to the body weight, the triglyceride (TG) concentration in the liver, the aspartate aminotransferase (AST) activity in the plasma, the alanine aminotransferase (ALT) activity in the plasma, and the TG concentration in the plasma of the mice in each group.
The AST and ALT activities and TG concentration in the plasma were measured according to the product protocol using dedicated reagent kits for each test item (L-Type Wako AST, L-Type Wako ALT, and L-Type Wako TG M, produced by FUJIFILM Wako Pure Chemical Corporation).

[4] = group ES: 2.0% v/v ethanol diet + 2.5 mg sesaminol per day oral
[5] = group ES: 2.0% v/v ethanol diet + 2.5 mg sesaminol per day oral, group E significant decrease
[6] = group S: 2.5 mg sesaminol per day oral, no ethanol, vs group C
[7] = EtOH (2.0% v/v) + Sesaminol group ES

With `Oc1cc2c(cc1C1OCC3C(c4ccc5c(c4)OCO5)OCC13)OCO2` (stereo not shown) [Sesaminol] the “bacterial flora structure at the phylum level (abnormalities observed in group E: Tenericutes, Verrucomicrobia, Proteobacteria, Actinobacteria increased)” value (mouse gut microbiota; [4]) was “recovered to the same level as group C”, the “relative abundance of the family Lachnospiraceae, the family Ruminococcaceae, and the family Tannerellaceae” value (mouse gut microbiota; [5]) was “recovered to the same level as that in group C” and the “relative abundance of the family Enterobacteriaceae and the family Streptococcaceae” value (mouse gut microbiota; group ES: 2.0% v/v ethanol diet + 2.5 mg sesaminol per day oral, group E significant increase) was “recovered to the same level as that in group C”. The “obligate anaerobes of the phylum Bacteroidetes and the phylum Firmicutes (short-chain fatty acids-producing bacteria)” value (mouse gut microbiota; [6]) was “increase in obligate anaerobes of the phylum Bacteroidetes and the phylum Firmicutes”, the “short-chain fatty acid-producing bacteria of the family Lachnospiraceae, the family Ruminococcaceae, and the family Tannerellaceae” value (mouse gut microbiota; [6]) was “increased in group S alone compared with group C” and the HO-1 expression level (HO-1) was “recovery of the expression level”. For the same molecule, the “acetic acid in the feces” value [1, 4] was “significant increase”, the “propionic acid in the feces” value [1, 4] was “significant increase” and the “amount of butyric acid in the feces” value [1, 5] was “increase in the amount of butyric acid to the same level as that in group C”. For the same molecule, the “amount of short-chain fatty acids (acetic acid, propionic acid, butyric acid) in the feces” value ([1]; group S: 2.5 mg sesaminol per day oral, no ethanol, vs all other groups) was “significant increase in the amount of short-chain fatty acids in the feces compared with all the other groups”, the “protein level of ZO-1 in colon tissue (fluorescence microscope observation)” value (ZO-1) was “improvement in all of those levels” and the “body-weight changes between the groups” value [2] was “No significant differences”. The “plasma LPS concentration” value (LPS) was “significant and considerable decrease in the plasma LPS concentration compared with group E”, the “Plasma ALT” value [3, 7] was 45.8 ± 6.6*^, †, ### U/L and the “Plasma AST” value [3, 7] was 43.5 ± 7.6 U/L. The “Plasma TG” value [3, 7] was 0.65 ± 0.13 mmol/L, the “Plasma ALT” value ([3]; Sesaminol (2.5 mg/d) group S) was 33.3 ± 5.7 U/L and the “Plasma AST” value ([3]; Sesaminol (2.5 mg/d) group S) was 41.3 ± 6.8 U/L. For the same molecule, the “Plasma TG” value ([3]; Sesaminol (2.5 mg/d) group S) was 0.53 ± 0.14 mmol/L.
